Results as given in patent US8822496B2, “Dosage regimens for HCV combination therapy” (priority 2009, dated 2014).
Structures can show the parent of a compound that is named as a salt. Where two headings read alike, the source gives them in different places.

Tests used:
[1] = tested on: HCV genotype-1; assay: Clinical study with treatment-naive patients: monotherapy 14 days, then triple combination with P+R 14 days; conditions: for VL rebound during treatment: first 14 days of monotherapy, all dose groups
Experimental: Plasma HCV-RNA levels were measured with Roche COBAS® TaqMan® assay (LLOQ 25 IU/m L). After Day 28, at the discretion of the investigator, patients could continue to receive standard of care treatment, i.e., P+R.

[2] = tested on: HCV genotype-1; conditions: for Below Limit of Quantification at D 28 (number of patients) / Below Limit of Quantification at D 28 (percent of patients): less than 25 IU per ml of serum; for Virologic rebound during treatment (patients with rebound/patients in group) / Virologic rebound during treatment: first 28 days
Experimental: All patients were monitored for safety and tolerability of study drugs. The primary endpoint was a ≧2 log 10 reduction in HCV viral load (VL) from baseline at any time up to Day 28. Plasma HCV-RNA levels were measured using the Roche COBAS® TaqMan® assay (LLOQ 25 IU/mL). The treatment experienced patients in this study included P+R null responders and partial respoders. After Day 28, at the discretion of the investigator, patients could continue to receive standard of care treatment, i.e., P+R.

[3] = tested on: HCV NS3 protease; assay: HCV NS3 protease inhibitor EC50 (background statement); type: cell-based
[4] = Trough plasma concentration of Compound (1) with or without two-fold first loading dose; type: in vivo, human; conditions: TE patients; for Mean steady state trough of Days 10-29 / Geometric mean trough plasma concentration: + P+R
Source text: Trough (pre-dose) plasma samples were collected on Days 2, 3, 4, 6, 10, 14, 21, 28 and 29 following the initiation of combination treatment on Day 1.

[5] = 240 mg QD SGC with first 480 mg loading dose, Day 3
[6] = 240 mg QD SGC with first 480 mg loading dose, Day 4
[7] = 240 mg QD SGC with first 480 mg loading dose, Day 6
[8] = 240 mg QD solution (PiB) without loading dose, Day 3
[9] = 240 mg QD solution (PiB) without loading dose, Day 4
[10] = 240 mg QD solution (PiB) without loading dose, Day 6

Compound: C=C[C@@H]1C[C@]1(NC(=O)[C@@H]1C[C@H](Oc2cc(-c3csc(NC(=O)C(C)C)n3)nc3c(Br)c(OC)ccc23)CN1C(=O)[C@@H](NC(=O)OC1CCCC1)C(C)(C)C)C(=O)O [Compound (1) sodium salt]
- Serious AE ([1]; 20 mg dose cohort, 6 days after initiating P+R): One serious AE, asthenia
- Discontinuation of treatment due to adverse events ([1]; during monotherapy): No pts discontinued treatment
- VL rebound during treatment [1]: a majority of patients
- VL rebound during treatment ([1]; listed as Compound (1) (sodium salt)): a majority of the patients
- Tolerability ([1]; treatment-naive pts, 20-240 mg qd, monotherapy 14 days then + P+R 14 days): well tolerated
- Maximal decline D 1-14 ([2]; 48 mg QD, N = 6, + P+R): 4.4 ×log10
- Maximal decline D 1-14 ([2]; 120 mg QD, N = 7, + P+R): 4.5 ×log10
- Mean Decline at D 14 ([2]; 120 mg QD, N = 7, + P+R): 4.3 ×log10
- Virologic rebound during treatment ([2]; 240 mg qd + P+R, listed as Compound (1) (sodium salt)): no rebound
- Serious or severe adverse events ([2]; 48-240 mg qd + P+R, 28 days): no serious or severe adverse events
- Discontinuation of treatment due to an AE ([2]; AE: anxiety): One subject discontinued treatment
- Tolerability ([2]; treatment-experienced pts, 48-240 mg qd + P+R, 28 days): well tolerated

Compound: C=C[C@@H]1C[C@]1(NC(=O)[C@@H]1C[C@H](Oc2cc(-c3csc(NC(=O)C(C)C)n3)nc3c(Br)c(OC)ccc23)CN1C(=O)[C@@H](NC(=O)OC1CCCC1)C(C)(C)C)C(=O)O [Compound (1)]
- Mean steady state trough of Days 10-29 ([4]; 240 mg QD SGC with first 480 mg loading dose): 5,774
- Geometric mean trough plasma concentration [4, 6]: 5,640
- Geometric mean trough plasma concentration [4, 7]: 7,060
- Geometric mean trough plasma concentration ([4]; 240 mg QD SGC with first 480 mg loading dose, Day 10): 6,580
- Geometric mean trough plasma concentration ([4]; 240 mg QD SGC with first 480 mg loading dose, Day 14): 5,590
- Geometric mean trough plasma concentration ([4]; 240 mg QD SGC with first 480 mg loading dose, Day 21): 5,410
- Geometric mean trough plasma concentration ([4]; 240 mg QD SGC with first 480 mg loading dose, Day 28): 5,960
- % of mean steady state trough of Days 10-29 [4, 5]: 81.2%
- % of mean steady state trough of Days 10-29 [4, 6]: 97.7%
- % of mean steady state trough of Days 10-29 [4, 7]: 122.3%
- Geometric mean trough plasma concentration ([4]; 240 mg QD soft gelatin capsules (SGC) with a first 480 mg loading dose, Day 2): 3,470
- Geometric mean trough plasma concentration ([4]; 240 mg QD solution (PiB) without a first 480 mg loading dose, Day 2): 710
- Geometric mean trough plasma concentration [4, 9]: 2,420
- Geometric mean trough plasma concentration [4, 10]: 2,950
- Geometric mean trough plasma concentration ([4]; 240 mg QD solution (PiB) without loading dose, Day 10): 2,930
- Geometric mean trough plasma concentration ([4]; 240 mg QD solution (PiB) without loading dose, Day 14): 2,850
- % of mean steady state trough of Days 10-29 [4, 8]: 49.2%
- % of mean steady state trough of Days 10-29 [4, 10]: 87.4%
- Virologic rebound during treatment ([2]; 240 mg qd + P+R): No rebound
